{
  "source": "patent US9737523B2",
  "about": "“Anti-fibrogenic compounds, methods and uses thereof” (priority 2013, dated 2017)",
  "key": {"IMR-90": {"tested_on": "IMR-90", "assay": "MMP-1 expression in lung fibroblast cell line IMR-90, Western blot", "type": "cell-based, human", "conditions": "IMR-90, 12.5 μg/ml to 150 μg/ml, 48 hours", "method": "(§1) The squamous cell carcinoma (UMSCC) cell line derived from patients with head and neck cancer (ATCC™, Manassas, Va.) were maintained in RPMI-1640 medium with 10% FBS. The Human keratinocyte cell line HACAT (ATCC) and the carcinomic human alveolar basal epithelial cell line A549 (ATCC™) were cultured in DMEM with 10% FBS. The diploid lung fibroblasts IMR-90 (ATCC™) were maintained in Minimum Essential Medium (MEM, Invitrogen™) with 10% FBS.\n(§2) Similarly, other cells such as synoviocytes, IMR-90, keratinocytes, UMSCC and A549 were treated with kynurenine at concentrations of 12.5 to 150 μg/ml in appropriate media for each cell type as described above for 48 hours. Cells were then harvested for western blot analysis.\n(§3) Cells were harvested by Trypsin/EDTA and lysed with cell lysis buffer containing 50 mM Tris-HCl (pH7.40), 150 mM NaCl, 10 mM EDTA, 5 mM EGTA, 1% TritonX-100™, 0.5% Igepal CA-630, 0.025% NaN3 and protease inhibitor cocktail (Sigma™). Cell debris was removed by centrifugation at 20,000×g for 10 minutes. The protein concentration in supernatant was determined using the MicroBCA™ method (Pierce™, Rockford, Ill.). Proteins in supernatant were mixed with protein sample loading buffer (final concentration: 60 mM Tris-HCl (pH 6.80), 2% SDS, 10% glycerol, 1.5% β-mercaptoethanol, 0.002% bromophenol blue) and size fractioned by 10% of SDS-polyacrylamide gel. […]"}, "MEK": {"tested_on": "MEK", "assay": "MEK phosphorylation in dermal fibroblasts, Western blot", "type": "cell-based, human", "conditions": "100 μg/ml", "method": "as §3, with “gel. After proteins were transferred onto nitrocellulose membrane by iBlot™ (Invitrogen Life Technologies™), non-specific binding were blocked with phosphate buffer saline twenty 20 (PBS-T) containing 5% skim milk for 1 hour. The membrane was then incubated with primary antibody overnight. After incubation with a secondary antibody for 1 hour, protein bands were visualized by an enhanced chemiluminescence (ECL™) detection system (Santa Cruz Biotechnology™, Santa Cruz, Calif.).” for “gel.”"}, "UMSCC": {"tested_on": "UMSCC", "assay": "MMP-1 expression in squamous cell carcinoma cell line UMSCC, Western blot", "type": "cell-based, human", "conditions": "12.5 to 150 μg/ml, 48 hours", "method": "as §1, §2, §3"}, "splenocytes": {"tested_on": "splenocytes", "assay": "ConA-induced splenocyte proliferation", "type": "cell-based", "conditions": "100 and 150 μg/ml"}, "human dermal fibroblasts": {"tested_on": "human dermal fibroblasts", "assay": "MTT proliferation assay of human dermal fibroblasts", "type": "cell-based", "conditions": "up to 150 μg/ml, 48 hours", "method": "The effect of kynurenine on human dermal fibroblast proliferation was detected by MTT [3-(4,5-Dimethylthiazol-2-yl)-2,5-diphenyltetrazolium bromide] assay. In brief, 10,000 cells were seeded on a 24 well-plate and incubated with different concentrations of kynurenine for 48 hours. Media were removed and 0.2 ml of MTT (5 mg/ml in DMEM containing 2% FBS) was added. Cells were incubated with MIT for 4 hours. After washing 3 times with PBS, 0.2 ml of DMSO was added to dissolve the crystals. Absorbance was measured at 570 nm."}, "type 1 procollagen": {"tested_on": "type 1 procollagen", "assay": "Type 1 procollagen expression in dermal fibroblasts, Western blot", "type": "cell-based, human", "conditions": "25-150 μg/ml, 48 hours", "method": "Cell debris was removed by centrifugation at 20,000×g for 10 minutes. The protein concentration in supernatant was determined using the MicroBCA™ method (Pierce™, Rockford, Ill.). Proteins in supernatant were mixed with protein sample loading buffer (final concentration: 60 mM Tris-HCl (pH 6.80), 2% SDS, 10% glycerol, 1.5% β-mercaptoethanol, 0.002% bromophenol blue) and size fractioned by 10% of SDS-polyacrylamide gel. After proteins were transferred onto nitrocellulose membrane by iBlot™ (Invitrogen Life Technologies™), non-specific binding were blocked with phosphate buffer saline twenty 20 (PBS-T) containing 5% skim milk for 1 hour. The membrane was then incubated with primary antibody overnight. After incubation with a secondary antibody for 1 hour, protein bands were visualized by an enhanced chemiluminescence (ECL™) detection system (Santa Cruz Biotechnology™, Santa Cruz, Calif.). […] The secondary antibodies were either goat anti-mouse IgG (H+L) HPR conjugate or goat anti-rabbit IgG (H+L) HPR conjugate (Bio-rad Laboratory™ (Mississauga, ON, Canada). Secondary antibodies were used at a concentration of 1:3000."}, "HACAT": {"tested_on": "HACAT", "assay": "MMP-1 expression in keratinocyte cell line HACAT, Western blot", "type": "cell-based, human", "conditions": "12.5 to 150 μg/ml, 48 hours", "method": "as §1, §2, §3"}, "synoviocytes": {"tested_on": "synoviocytes", "assay": "MMP-1 expression in synoviocytes, Western blot", "type": "cell-based, human", "conditions": "12.5 μg/ml to 150 μg/ml, 48 hours", "method": "Synoviocytes were obtained by enzymatic digestion of synovial membrane from patients with rheumatoid arthritis during joint replacement with 1 mg/ml collagenase (Sigma™) in RPMI1640 (Invitrogen Life Technologies™) for 4 hours at 37° C. Dissociated cells were plated in synoviocyte growth medium (Cell Applications Inc.™, San Diego, Calif.) supplemented with penicillin G sodium (100 U/mL), streptomycin sulfate (100 μg/mL), and amphotericin B (0.25 μg/mL).\nas §2, §3"}, "fibronectin": {"tested_on": "fibronectin", "assay": "Fibronectin mRNA in human dermal fibroblasts, real-time PCR", "type": "cell-based", "conditions": "various concentration"}, "dermal keratinocytes": {"tested_on": "dermal keratinocytes", "assay": "MMP-1 expression in primary dermal keratinocytes, Western blot", "type": "cell-based, human", "conditions": "12.5 to 150 μg/ml, 48 hours", "method": "Human foreskin keratinocytes were established as previously described (Ghahary et al., 1998). Cells were cultured in serum-free keratinocyte medium (KSFM; Invitrogen Life Technologies™) supplemented with bovine pituitary extract (50 μg/ml) and EGF (0.2 ng/ml). These cells were used at passages 2-5.\nas §2, §3"}},
  "data": [
    {"smiles": "Nc1ccccc1C(=O)CC(N)C(=O)O", "note": "(racemic) [kynurenine]", "values": [
      {"measurement": "MMP-1 expression", "setting": "IMR-90", "result": "up-regulated"},
      {"measurement": "time of peak MEK activation", "setting": "MEK", "result": 8, "unit": "h"},
      {"measurement": "MEK phosphorylation", "setting": "MEK; different times", "result": "detection of the ERK1/2 upstream signal molecule MEK phosphorylation"},
      {"measurement": "MMP-1 expression versus untreated controls", "setting": "UMSCC", "result": "did not significantly differ"},
      {"measurement": "reduction in conA-induced splenocyte proliferation", "setting": "splenocytes; after 48 hours", "result": "about 2 fold"},
      {"measurement": "reduction in conA-induced splenocyte proliferation", "setting": "splenocytes; after 96 hours", "result": "~5", "unit": "fold"},
      {"measurement": "fibroblast proliferation (MTT)", "setting": "human dermal fibroblasts", "result": "no significant effect"},
      {"measurement": "expression of type 1 procollagen", "setting": "type 1 procollagen", "result": "remarkably decreases"},
      {"measurement": "MMP-1 expression versus untreated controls", "setting": "HACAT", "result": "did not significantly differ"},
      {"measurement": "MMP-1 expression", "setting": "synoviocytes", "result": "up-regulated"},
      {"measurement": "fibronectin expression (mRNA)", "setting": "fibronectin", "result": "capable of down-regulating"},
      {"measurement": "MMP-1 expression versus untreated controls", "setting": "dermal keratinocytes", "result": "did not significantly differ"}
    ]}
  ]
}
